The record followed here is US7632414B2, “Process for suppressing the growth of green algae in aqueous systems” (priority 2003, dated 2009).

This test has as its system green algae. As to conditions: after the pH of the water becomes 6.0 or more acidic on acid addition.

Description: Experiments have also been carried out to add acid to suppress plankton.

`Cl` [hydrochloric acid]: the “growth of green algae in Dian Ci Lake water” value was “totally inhibited”.
